Reference: ChEMBL document CHEMBL4184144, “Design, synthesis and biological evaluation of fucose-truncated monosaccharide analogues of ipomoeassin F” (Bioorg Med Chem Lett, 2017)
Calls of active or inactive are those of the source. The calls are words filed in the database; no cut-off is given here.

Assays:
Type in all cases: functional, cell-based
U-937 = assay: Antiproliferative activity against human U937 cells
MCF7 [1] = assay: Antiproliferative activity against human MCF7 cells after 72 hrs by MTT assay; conditions: MCF7, 72 h
MDA-MB-231 [2] = assay: Antiproliferative activity against human MDA-MB-231 cells after 72 hrs by alamarBlue assay; conditions: MDA-MB-231, 72 h
HeLa = assay: Antiproliferative activity against human HeLa cells
Jurkat = assay: Antiproliferative activity against human Jurkat cells
MCF7 [3] = assay: Antiproliferative activity against human MCF7 cells at 10 uM after 72 hrs by MTT assay
MDA-MB-231 [4] = assay: Antiproliferative activity against human MDA-MB-231 cells at 10 uM after 72 hrs by alamarBlue assay

IC50 (U-937)	IC50 (MCF7 [1])	IC50 (MDA-MB-231 [2])	IC50 (HeLa)	IC50 (Jurkat)	SMILES	Activity (MCF7 [3])	Activity (MDA-MB-231 [4])
79.8 nM	216 nM	16.5 nM	138 nM	82.6 nM	C/C=C(\C)C(=O)O[C@@H]1[C@@H](O)[C@@H]2O[C@H]3[C@H](O[C@@H](CCCCC)CCCCCCC(=O)CCC(=O)OC[C@@H](O2)[C@H]1OC(=O)/C=C/c1ccccc1)O[C@H](C)[C@H](OC(C)=O)[C@@H]3OC(C)=O	–	–
–	–	–	–	–	C/C=C(\C)C(=O)O[C@@H]1[C@@H](O)[C@@H]2O[C@@H](CCCCC)CCCCCCC(=O)CCC(=O)OC[C@@H](O2)[C@H]1OC(=O)/C=C/c1ccccc1	inactive	inactive
–	–	–	–	–	C/C=C(\C)C(=O)O[C@H]1[C@@H]2O[C@@H](CCCCC)CCCCCCC(=O)CCC(=O)OC[C@@H](O2)[C@@H](O)[C@@H]1OC(=O)/C=C/c1ccccc1	inactive	inactive
72.5 nM	86.7 nM	131 nM	133 nM	139 nM	C/C=C(\C)C(=O)O[C@@H]1[C@@H](O)[C@@H]2O[C@H]3[C@H](O[C@@H](CCCCC)CCCCCCC(=O)CCC(=O)OC[C@@H](O2)[C@H]1OC(=O)/C=C/c1ccccc1)O[C@H](C)[C@H](O)[C@@H]3O	–	–
–	–	–	–	–	C/C=C(\C)C(=O)O[C@@H]1[C@@H](O)[C@@H]2OCCO[C@@H](CCCCC)CCCCCCC(=O)CCC(=O)OC[C@@H](O2)[C@H]1OC(=O)/C=C/c1ccccc1	inactive	inactive

SMILES	IC50 (U-937)	IC50 (MCF7 [1])	IC50 (MDA-MB-231 [2])	IC50 (HeLa)	IC50 (Jurkat)	Activity (MCF7 [3])	Activity (MDA-MB-231 [4])
C/C=C(\C)C(=O)O[C@@H]1[C@@H](O)[C@@H]2O[C@H]3[C@H](O[C@@H](CCCCC)CCCCCCC(=O)CCC(=O)OC[C@@H](O2)[C@H]1OC(=O)/C=C/c1ccccc1)O[C@H](C)[C@H](OC(C)=O)[C@@H]3O	5.4 nM	43.7 nM	6.5 nM	16.4 nM	6.1 nM	Active	Active
